Source: patent US20090221653A1, “7-(2-amino-1-hydroxy-ethyl)-4-hydroxybenzothiazol-2(3H)-one-derivatives as beta2 adrenoreceptor agonists” (AstraZeneca AB, priority 2005, published 2009)
Where a name gives a salt, the structure may show the parent alone.

Experiments:
[1] = target: T1, recombinant human α1D receptor (Homo sapiens, UniProt P25100); assay: Adrenergic α1D selectivity assay, inhibition of [3H]-prazosin binding; settings: HEK293 membranes, [3H]-prazosin 0.3 nM; read-out: α1 bind pIC50 (converted)
T1 construct: expressed in transfected cells; host or cells: HEK293
T1 sequence (P25100 1-572): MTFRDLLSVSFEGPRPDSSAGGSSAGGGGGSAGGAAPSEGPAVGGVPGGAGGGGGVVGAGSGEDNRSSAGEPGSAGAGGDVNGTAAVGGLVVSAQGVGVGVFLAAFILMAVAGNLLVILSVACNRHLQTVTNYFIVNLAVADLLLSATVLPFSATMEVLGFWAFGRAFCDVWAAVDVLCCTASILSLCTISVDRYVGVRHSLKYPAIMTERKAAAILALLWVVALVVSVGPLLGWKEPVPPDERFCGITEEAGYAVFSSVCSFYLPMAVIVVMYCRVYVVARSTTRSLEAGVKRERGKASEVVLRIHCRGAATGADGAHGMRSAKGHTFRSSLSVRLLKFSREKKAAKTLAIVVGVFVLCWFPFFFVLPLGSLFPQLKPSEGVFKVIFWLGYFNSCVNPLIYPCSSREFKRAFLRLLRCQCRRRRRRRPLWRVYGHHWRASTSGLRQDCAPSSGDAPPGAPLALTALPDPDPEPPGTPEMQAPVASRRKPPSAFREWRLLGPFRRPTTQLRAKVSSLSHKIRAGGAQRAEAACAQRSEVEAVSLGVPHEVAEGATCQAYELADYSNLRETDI
Description: Membranes were prepared from human embryonic kidney 293 (HEK293) cells expressing recombinant human α1D receptor. These were diluted in Assay Buffer (50 mM HEPES, 1 mM EDTA, 0.1% gelatin, pH 7.4) to provide a final concentration of membranes that gave a clear window between maximum and minimum specific binding.
Assays were performed in U-bottomed 96-well polypropylene plates. 10 μL [^3H]-prazosin (0.3 nM final concentration) and 10 μL of test compound (10× final concentration) were added to each test well. For each assay plate 8 replicates were obtained for [^3H]-prazosin binding in the presence of 10 μL vehicle (10% (v/v) DMSO in Assay Buffer; defining maximum binding) or 10 μL BMY7378 (10 μM final concentration; defining non-specific binding (NSB)). Membranes were then added to achieve a final volume of 100 μL. The plates were incubated for 2 hours at room temperature and then filtered onto PEI coated GF/B filter plates, pre-soaked for 1 hour in Assay Buffer, using a 96-well plate Tomtec cell harvester. Five washes with 250 μL wash buffer (50 mM HEPES, 1 mM EDTA, pH 7.4) were performed at 4° C. to remove unbound radioactivity. The plates were dried then sealed from underneath using Packard plate sealers and MicroScint-O (50 μL) was added to each well. The plates were sealed (TopSeal A) and filter-bound radioactivity was measured with a scintillation counter (TopCount, Packard BioScience) using a 3-minute counting protocol.
Total specific binding (B0) was determined by subtracting the mean NSB from the mean maximum binding. NSB values were also subtracted from values from all other wells.

Adrenergic β2 = target: T2, Adrenergic β2 (Homo sapiens, UniProt P07550); assay: Alternative Adrenergic β2 Mediated cAMP Production in H292 cells (AlphaScreen cAMP detection); assay type: cell-based; settings: for EC50: cAMP, test compounds incubated 60 minutes, 300 μM rolipram, read-out: β2 pEC50 (converted); for β2 Int Act: fraction relative to the maximum activity determined for formoterol, 60 minutes incubation
T2 construct: endogenous in cells; host or cells: H292 cells
T2 sequence (P07550 whole entry): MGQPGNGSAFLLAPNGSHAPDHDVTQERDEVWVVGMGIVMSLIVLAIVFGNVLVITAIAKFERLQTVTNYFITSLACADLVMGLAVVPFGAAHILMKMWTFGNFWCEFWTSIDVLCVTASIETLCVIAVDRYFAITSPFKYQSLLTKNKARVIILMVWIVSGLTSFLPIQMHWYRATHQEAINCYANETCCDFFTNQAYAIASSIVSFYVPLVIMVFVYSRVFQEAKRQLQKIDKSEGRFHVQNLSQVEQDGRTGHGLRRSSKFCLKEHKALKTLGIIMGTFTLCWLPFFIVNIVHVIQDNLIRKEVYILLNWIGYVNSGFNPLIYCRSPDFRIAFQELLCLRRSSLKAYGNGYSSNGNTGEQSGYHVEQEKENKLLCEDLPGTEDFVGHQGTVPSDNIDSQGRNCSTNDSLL

| SMILES | IC50 [1] [nM] | EC50 (Adrenergic β2) [nM] | β2 Int Act (Adrenergic β2) |
| --- | --- | --- | --- |
| O=c1[nH]c2c(O)ccc([C@@H](O)CNCCCS(=O)(=O)CCOCCc3cccc4ccccc34)c2s1 [Example 2, 4-Hydroxy-7-((1R)-1-hydroxy-2-{[3-({2-[2-(1-naphthyl)ethoxy]ethyl}sulfonyl)propyl]-amino}ethyl)-1,3-benzothiazol-2(3H)-one trifluoroacetate] | 1000 | 0.158 | 1 |
| Cl.O=c1[nH]c2c(O)ccc([C@@H](O)CNCCSCCOCCc3cccc4ccccc34)c2s1 [Example 4, 4-Hydroxy-7-((1R)-1-hydroxy-2-{[2-({2-[2-(1-naphthyl)ethoxy]ethyl}thio)ethyl]-amino}ethyl)-1,3-benzothiazol-2(3H)-one hydrochloride] | 200 | 0.1 | 0.9 |
